From patent US20230346912A1 (priority 2022, published 2023)

Tested on: spleen lymphocytes of B2 haplotype chickens infected with H9N2 AIV
Format: cell-based, chicken

Sequence | immunogenicity of individual peptide (IFN-γ ELISpot)
AVKGIGTMV [Polypeptide P10] | considered immunogenic
DVSFQGRGV [Polypeptide P11] | considered immunogenic
MSRDWLMLI [Polypeptide P373] | considered immunogenic
WIIRNWETV [Polypeptide P257] | considered immunogenic
